Measurements reported in ChEMBL document CHEMBL1137017, “In vitro antiviral activity and cross-resistance profile of PL-100, a novel protease inhibitor of human immunodeficiency virus type 1” (Antimicrob Agents Chemother, 2007).

Key:
[1] = system: Human immunodeficiency virus 1; assay: Resistance index, ratio of EC50 for HIV1 with protease 46I/50L/54V/82A mutation to EC50 for wild type HIV1 NL4-3 in HEK293 cells after 48 hrs by replication-deffective luciferase reporter gene-based phenotypic assay; type: functional
[2] = system: Human immunodeficiency virus 1; assay: Resistance index, ratio of EC50 for HIV1 with protease 46I/53L/82T/90M mutation to EC50 for wild type HIV1 NL4-3 in HEK293 cells after 48 hrs by replication-deffective luciferase reporter gene-based phenotypic assay; type: functional
[3] = system: Human immunodeficiency virus 1; assay: Resistance index, ratio of EC50 for HIV1 with protease 46L mutation to EC50 for wild type HIV1 NL4-3 in HEK293 cells after 48 hrs by replication-deffective luciferase reporter gene-based phenotypic assay; type: functional
[4] = system: Human immunodeficiency virus 1; assay: Resistance index, ratio of EC50 for HIV1 with protease 46I mutation to EC50 for wild type HIV1 NL4-3 in HEK293 cells after 48 hrs by replication-deffective luciferase reporter gene-based phenotypic assay; type: functional
[5] = system: Human immunodeficiency virus 1; assay: Resistance index, ratio of EC50 for HIV1 with protease 46I/50V/54V mutation to EC50 for wild type HIV1 NL4-3 in HEK293 cells after 48 hrs by replication-deffective luciferase reporter gene-based phenotypic assay; type: functional
[6] = system: Human immunodeficiency virus 1; assay: Resistance index, ratio of EC50 for HIV1 with protease 46I/50V/90M mutation to EC50 for wild type HIV1 NL4-3 in HEK293 cells after 48 hrs by replication-deffective luciferase reporter gene-based phenotypic assay; type: functional
[7] = system: Human immunodeficiency virus 1; assay: Resistance index, ratio of EC50 for HIV1 with protease 46I/50V mutation to EC50 for wild type HIV1 NL4-3 in HEK293 cells after 48 hrs by replication-deffective luciferase reporter gene-based phenotypic assay; type: functional
Protease = Protease (Human immunodeficiency virus 1, UniProt Q9YQ12); assay: Inhibition of HIV1 protease
Chain of Protease (Q9YQ12 whole entry): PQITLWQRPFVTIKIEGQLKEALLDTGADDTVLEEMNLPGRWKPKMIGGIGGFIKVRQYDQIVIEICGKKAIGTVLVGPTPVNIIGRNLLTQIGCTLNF

[8] = Selectivity index, ratio of CC50 for human MT4 cells to EC50 for HIV1 NL4-3; type: toxicity, cell-based; details: read-out: Ratio CC50/EC50
[9] = system: Human immunodeficiency virus 1; assay: Resistance index, ratio of EC50 for HIV1 with protease 46I/82T/84V/90M mutation to EC50 for wild type HIV1 NL4-3 in HEK293 cells after 48 hrs by replication-deffective luciferase reporter gene-based phenotypic assay; type: functional
[10] = system: Human immunodeficiency virus 1; assay: Resistance index, ratio of EC50 for HIV1 with protease 33I/46I/84V/88D/90M mutation to EC50 for wild type HIV1 NL4-3 in HEK293 cells after 48 hrs by replication-deffective luciferase reporter gene-based phenotypic assay; type: functional
[11] = system: Human immunodeficiency virus 1; assay: Resistance index, ratio of EC50 for HIV1 with protease 48V/54V/82A/90M mutation to EC50 for wild type HIV1 NL4-3 in HEK293 cells after 48 hrs by replication-deffective luciferase reporter gene-based phenotypic assay; type: functional
[12] = system: Human immunodeficiency virus 1; assay: Resistance index, ratio of EC50 for non-B type HIV1 with protease 32I/47A mutation to EC50 for wild type HIV1 NL4-3 in HEK293 cells after 48 hrs by replication-deffective luciferase reporter gene-based phenotypic assay; type: functional
[13] = system: Human immunodeficiency virus 1; assay: Resistance index, ratio of EC50 for HIV1 with protease 46I/47A/84V mutation to EC50 for wild type HIV1 NL4-3 in HEK293 cells after 48 hrs by replication-deffective luciferase reporter gene-based phenotypic assay; type: functional
[14] = system: Human immunodeficiency virus 1; assay: Resistance index, ratio of EC50 for HIV1 with protease 46I/88S mutation to EC50 for wild type HIV1 NL4-3 in HEK293 cells after 48 hrs by replication-deffective luciferase reporter gene-based phenotypic assay; type: functional
[15] = system: Human immunodeficiency virus 1; assay: Resistance index, ratio of EC50 for HIV1 with protease 33F/46I/84V/88D/90M mutation to EC50 for wild type HIV1 NL4-3 in HEK293 cells after 48 hrs by replication-deffective luciferase reporter gene-based phenotypic assay; type: functional
[16] = system: Human immunodeficiency virus 1; assay: Resistance index, ratio of EC50 for HIV1 with protease 30N/33F/46L/54L/84V/88D mutation to EC50 for wild type HIV1 NL4-3 in HEK293 cells after 48 hrs by replication-deffective luciferase reporter gene-based phenotypic assay; type: functional
[17] = system: Human immunodeficiency virus 1; assay: Resistance index, ratio of EC50 for HIV1 with protease 33F/54L/82A/90M mutation to EC50 for wild type HIV1 NL4-3 in HEK293 cells after 48 hrs by replication-deffective luciferase reporter gene-based phenotypic assay; type: functional
[18] = system: Human immunodeficiency virus 1; assay: Resistance index, ratio of EC50 for HIV1 with protease 32I/46L/47V/84V mutation to EC50 for wild type HIV1 NL4-3 in HEK293 cells after 48 hrs by replication-deffective luciferase reporter gene-based phenotypic assay; type: functional
[19] = system: Human immunodeficiency virus 1; assay: Resistance index, ratio of EC50 for HIV1 with protease 33F/54L/82A/84V mutation to EC50 for wild type HIV1 NL4-3 in HEK293 cells after 48 hrs by replication-deffective luciferase reporter gene-based phenotypic assay; type: functional
[20] = system: Human immunodeficiency virus 1; assay: Resistance index, ratio of EC50 for HIV1 with protease 33F/46I/53L/82A/84V mutation to EC50 for wild type HIV1 NL4-3 in HEK293 cells after 48 hrs by replication-deffective luciferase reporter gene-based phenotypic assay; type: functional
[21] = system: Human immunodeficiency virus 1; assay: Resistance index, ratio of EC50 for HIV1 with protease 33F/54V/82T/84V/90M mutation to EC50 for wild type HIV1 NL4-3 in HEK293 cells after 48 hrs by replication-deffective luciferase reporter gene-based phenotypic assay; type: functional
[22] = system: Human immunodeficiency virus 1; assay: Resistance index, ratio of EC50 for HIV1 with protease 33F/46L/53L/54V/82A mutation to EC50 for wild type HIV1 NL4-3 in HEK293 cells after 48 hrs by replication-deffective luciferase reporter gene-based phenotypic assay; type: functional
[23] = system: Human immunodeficiency virus 1; assay: Resistance index, ratio of EC50 for HIV1 with protease 46L/54V/82A/90M mutation to EC50 for wild type HIV1 NL4-3 in HEK293 cells after 48 hrs by replication-deffective luciferase reporter gene-based phenotypic assay; type: functional
[24] = system: Human immunodeficiency virus 1; assay: Resistance index, ratio of EC50 for HIV1 with protease 46L/54V/73C/84V/90M mutation to EC50 for wild type HIV1 NL4-3 in HEK293 cells after 48 hrs by replication-deffective luciferase reporter gene-based phenotypic assay; type: functional
[25] = system: Human immunodeficiency virus 1; assay: Resistance index, ratio of EC50 for HIV1 with protease 33F/54V/82A/84V/90M mutation to EC50 for wild type HIV1 NL4-3 in HEK293 cells after 48 hrs by replication-deffective luciferase reporter gene-based phenotypic assay; type: functional
[26] = system: Human immunodeficiency virus 1; assay: Resistance index, ratio of EC50 for HIV1 with protease 46L/48V/82A/84V/90M mutation to EC50 for wild type HIV1 NL4-3 in HEK293 cells after 48 hrs by replication-deffective luciferase reporter gene-based phenotypic assay; type: functional
[27] = system: Human immunodeficiency virus 1; assay: Resistance index, ratio of EC50 for HIV1 with protease 46L/48V/82A/90M mutation to EC50 for wild type HIV1 NL4-3 in HEK293 cells after 48 hrs by replication-deffective luciferase reporter gene-based phenotypic assay; type: functional

Row | Compound | Ratio EC50 [1] | Ratio EC50 [2] | Ratio EC50 [3] | Ratio EC50 [4] | Ratio EC50 [5] | Ratio EC50 [6] | Ratio EC50 [7] | Ki (Protease) [nM] | selectivity ratio [8] | Ratio EC50 [9] | Ratio EC50 [10] | Ratio EC50 [11] | Ratio EC50 [12] | Ratio EC50 [13] | Ratio EC50 [14] | Ratio EC50 [15] | Ratio EC50 [16] | Ratio EC50 [17] | Ratio EC50 [18] | Ratio EC50 [19] | further results
1 | Cc1c(O)cccc1C(=O)N[C@@H](CSc1ccccc1)[C@H](O)CN1C[C@H]2CCCC[C@H]2C[C@H]1C(=O)NC(C)(C)C | 14 | 32.9 | 1.7 | 1.6 | 12.7 | 19.4 | 1.3 | 0.306 | 276 | 27.1 | 27.9 | 25.4 | 3.1 | 10.4 | 4.6 | 10 | 400 | 10.4 | 7.8 | 17.2 | Ratio EC50 [20]: 11.1; Ratio EC50 [21]: 14.9; Ratio EC50 [22]: 28.3; Ratio EC50 [23]: 14.1; Ratio EC50 [24]: 82.6; Ratio EC50 [25]: 21.1; Ratio EC50 [26]: 43.6; Ratio EC50 [27]: 30.8
2 | COC(=O)N[C@H](C(=O)N[C@@H](Cc1ccccc1)[C@@H](O)CN(Cc1ccc(-c2ccccn2)cc1)NC(=O)[C@@H](NC(=O)OC)C(C)(C)C)C(C)(C)C [ATAZANAVIR] | 67.5 | 33.7 | 0.9 | 0.7 | 2.4 | 1.2 | 0.4 | 0.039 | 17800 | 32 | 38 | 28 | 1 | 9.5 | 3.1 | 14.7 | 66.1 | 7.5 | 25 | 44.5 | Ratio EC50 [20]: 18.3; Ratio EC50 [21]: 14.1; Ratio EC50 [22]: 22.7; Ratio EC50 [23]: 11.8; Ratio EC50 [24]: 55.2; Ratio EC50 [25]: 24.7; Ratio EC50 [26]: 91.6; Ratio EC50 [27]: 35.4
3 | COC(=O)N[C@H](C(=O)NCCCC[C@@H](CO)N(CC(C)C)S(=O)(=O)c1ccc(N)cc1)C(c1ccccc1)c1ccccc1 [PPL-100] | 4 | 8.3 | 1.1 | 1.5 | 0.5 | 1.4 | 0.8 | 0.036 | 2310 | 4.8 | 6.3 | 1.1 | 1.4 | 14.8 | 0.4 | 5.6 | 23.2 | 30.3 | 0.6 | 31.2 | Ratio EC50 [20]: 17.8; Ratio EC50 [21]: 3.4; Ratio EC50 [22]: 5.5; Ratio EC50 [23]: 3.2; Ratio EC50 [24]: 10.8; Ratio EC50 [25]: 9.6; Ratio EC50 [26]: 13.4; Ratio EC50 [27]: 7.5
